Results taken from the supplement of paper PMC10627819.

Key:
Experiment in all cases: Bliss interaction score (quartile over a dose matrix) (fitness difference); higher = more antagonism (negative = synergy)
[1] = tested on: B. subtilis 168
In short: (§1)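 Values were capped at 1 after dividing OD595 at stationary-phase entry by the plate's robust no-drug mean. This ratio is fitness, and single-drug fitness was inferred from the combination data. The Bliss score is observed minus product-expected fitness, given as quartiles over technical, biological and donor/recipient replicates.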

[2] = tested on: S. aureus DSM 20231
In short: as §1

[3] = tested on: S. aureus Newman
In short: as §1

[4] = tested on: S. pneumoniae D39V
In short: as §1
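Further: first quartile when negative (synergy) and third quartile when positive (antagonism).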

Structure (SMILES) | Bliss interaction score [1] | Bliss interaction score [2] | Bliss interaction score [3] | Bliss interaction score [4] | Bliss interaction score ([1]; main component drawn) | Bliss interaction score ([2]; main component drawn) | Bliss interaction score ([3]; main component drawn) | Bliss interaction score ([4]; main component drawn)
CN(C)[C@@H]1C(O)=C(C(N)=O)C(=O)[C@@]2(O)C(O)=C3C(=O)c4c(O)ccc(Cl)c4[C@@](C)(O)[C@H]3C[C@@H]12 [Clortetracycline] + CN[C@H](CC(C)C)C(=O)N[C@H]1C(=O)N[C@@H](CC(N)=O)C(=O)N[C@H]2C(=O)N[C@H]3C(=O)N[C@H](C(=O)N[C@H](C(=O)O)c4cc(O)cc(O)c4-c4cc3ccc4O)[C@H](O)c3ccc(c(Cl)c3)Oc3cc2cc(c3O[C@@H]2O[C@H](CO)[C@@H](O)[C@H](O)[C@H]2O[C@H]2C[C@](C)(N)[C@H](O)[C@H](C)O2)Oc2ccc(cc2Cl)[C@H]1O [Vancomycin] | -0.0454 | -0.0315 | 0.0562 | 0.0542 |  |  |  | 
N#CC(C#N)=NNc1cccc(Cl)c1 [CCCP] + CCC[C@@H]1C[C@@H](C(=O)N[C@@H]([C@H]2O[C@H](SC)[C@H](O)[C@@H](O)[C@H]2O)[C@@H](C)O)N(C)C1 [Lincomycin] | -0.0311 | -0.0627 | 0.116 | 0.0513 |  |  |  | 
N#CC(C#N)=NNc1cccc(Cl)c1 [CCCP] + CC(=O)O[C@H]1C[C@@]2(C)[C@@H](C[C@@H](O)[C@H]3[C@@]4(C)CC[C@@H](O)[C@@H](C)[C@@H]4CC[C@@]32C)/C1=C(\CCC=C(C)C)C(=O)O [Fusidic acid] | -0.18 | 0.0429 | 0.0673 | 0.122 |  |  |  | 
N#CC(C#N)=NNc1cccc(Cl)c1 [CCCP] + CCC(C)C1C(=O)NC(=C)C(=O)NC(C(=O)NC(CSCC(C(=O)N1)NC(=O)/C(=C/C)/NC(=O)C(C(C)CC)N)C(=O)NC2C(SCC(NC(=O)CNC(=O)C3CCCN3C2=O)C(=O)NC(CCCCN)C(=O)NC4C(SCC(NC(=O)CNC(=O)C(NC(=O)C(NC(=O)C(NC(=O)CNC4=O)C)CC(C)C)CCSC)C(=O)NC(CC(=O)N)C(=O)NC(CCSC)C(=O)NC(CCCCN)C(=O)NC5C(SCC6C(=O)NC(C(=O)NC(CSC(C(C(=O)N6)NC(=O)C(NC5=O)C)C)C(=O)NC(CO)C(=O)NC(C(C)CC)C(=O)NC(CC7=CN=CN7)C(=O)NC(C(C)C)C(=O)NC(=C)C(=O)NC(CCCCN)C(=O)O)CC8=CN=CN8)C)C)C)CC(C)C [Nisin] |  |  |  |  | 0.0522 | 0.0712 | -0.0401 | -0.0317
CN(C)[C@@H]1C(O)=C(C(N)=O)C(=O)[C@@]2(O)C(O)=C3C(=O)c4c(O)ccc(Cl)c4[C@@](C)(O)[C@H]3C[C@@H]12 [Clortetracycline] + Cc1onc(-c2ccccc2)c1C(=O)N[C@@H]1C(=O)N2[C@@H]1SC(C)(C)[C@@H]2C(=O)O [Oxacillin] | 0.0896 | 0.0471 | 0.0386 | 0.125 |  |  |  | 
C[C@@H]1O[C@@H]1P(=O)(O)O [Fosfomycin] + Oc1cc(Cl)ccc1Oc1ccc(Cl)cc1Cl [Triclosan] | -0.0701 | 0.0662 | 0.0573 | 0.0597 |  |  |  | 
CC(=O)Oc1ccccc1C(=O)O [Acetylsalicylicacid] + CO/N=C(\C(=O)N[C@@H]1C(=O)N2C(C(=O)O)=C(COC(C)=O)CS[C@H]12)c1csc(N)n1 [Cefotaxime] | 0.172 | -0.1 | -0.0434 | 0.138 |  |  |  | 
O=C(O)c1cn(C2CC2)c2cc(N3CCNCC3)c(F)cc2c1=O [Ciprofloxacin] + CC[C@H]1OC(=O)[C@H](C)C(=O)[C@H](C)[C@@H](O[C@@H]2O[C@H](C)C[C@H](N(C)C)[C@H]2O)[C@](C)(OC)C[C@@H](C)C(=O)[C@H](C)[C@H]2N(CCCCn3cnc(-c4cccnc4)c3)C(=O)O[C@]12C [Telithromycin] | 0.149 | 0.0454 | 0.0334 | 0.0763 |  |  |  | 
N#CC(C#N)=NNc1cccc(Cl)c1 [CCCP] + Clc1ccc(COC(Cn2ccnc2)c2ccc(Cl)cc2Cl)c(Cl)c1 [Miconazole] | 0.0582 | -0.0382 | -0.0554 | -0.0431 |  |  |  | 
N#CC(C#N)=NNc1cccc(Cl)c1 [CCCP] + CC(=O)NC[C@H]1CN(c2ccc(N3CCOCC3)c(F)c2)C(=O)O1 [Linezolid] | 0.0322 | -0.0274 | 0.0931 | 0.0853 |  |  |  | 
CC(=O)Oc1ccccc1C(=O)O [Acetylsalicylicacid] + CCP(CC)CC.CC(=O)OC[C@@H]1[C@H]([C@@H]([C@H]([C@@H](O1)[S-])OC(=O)C)OC(=O)C)OC(=O)C.[Au+] [Auranofin] | 0.0526 | -0.0726 | 0.0597 | 0.0631 |  |  |  | 
O=C(O)c1cn(C2CC2)c2cc(N3CCNCC3)c(F)cc2c1=O [Ciprofloxacin] + N[C@@H]1CONC1=O [CycloserineD] | -0.0971 | -0.0461 | -0.105 | 0.0695 |  |  |  | 
COc1cccc2c1C(=O)c1c(O)c3c(c(O)c1C2=O)C[C@@](O)(C(=O)CO)C[C@@H]3O[C@H]1C[C@H](N)[C@H](O)[C@H](C)O1 [Doxorubicin] + CO[C@@]12[C@H](COC(N)=O)C3=C(C(=O)C(C)=C(N)C3=O)N1C[C@@H]1N[C@@H]12 [MitomycinC] | -0.269 | -0.0314 | 0.122 | -0.0709 |  |  |  | 
N#CC(C#N)=NNc1cccc(Cl)c1 [CCCP] + CO[C@@H]1[C@@H](OC(N)=O)[C@@H](O)[C@H](Oc2ccc3c(O)c(NC(=O)c4ccc(O)c(CC=C(C)C)c4)c(=O)oc3c2C)OC1(C)C [Novobiocin] | -0.144 | 0.0738 | 0.0377 | 0.164 |  |  |  | 
CC(=O)Oc1ccccc1C(=O)O [Acetylsalicylicacid] + CC1(C)S[C@@H]2[C@H](NC(=O)[C@H](N)c3ccc(O)cc3)C(=O)N2[C@H]1C(=O)O [Amoxicillin] | 0.192 | 0.078 | -0.0753 | 0.0431 |  |  |  | 
CC1(C)S[C@@H]2[C@H](NC(=O)Cc3ccccc3)C(=O)N2[C@H]1C(=O)O [PenicillinG] + CN1C2=CC=CC=C2N=C3C1=CC=CC3=O [Pyocyanin] | -0.0227 | 0.0541 | 0.0699 | 0.144 |  |  |  | 
